Measured values taken from patent US6753154B1, “Human AZU-1 gene, variants thereof and expressed gene products” (The Regents of the University of California, priority 1998, dated 2004).

Tested on: T4-2 cells
Assay: Reversion assay in 3D rBM cultures with Northern blot of AZU-1 message
Assay type: cell-based, human
Conditions: 3D rBM culture; AIIB2 100 μg/ml ascites protein, Tyrphostin AG 1478 100 nM
From the text: To test this, total RNA was extracted from 3D rBM cultures of S1 cells and T4-2 cells treated with or without inhibitors of either β1 integrin (mAb AIIB2) or EGFR (Tyrphostin). Results are seen in FIG. 18. […] By virtue of its connections with β1 integrin and EGFR, AZU-1 may provide essential cellular information that dictates cellular structure and phenotype.
Total RNA was extracted from cells cultured as monolayers or in 3D rBM or cells from normal tissues or in situ carcinoma with TRIzol reagent (Life Technologies, Inc. Grand Island, N.Y.). For Northern blots, total RNA (20 μg/lane) was resolved on denaturing agarose gels and transferred to Hybond-N^+ membranes (Amersham). Resulting blots were hybridized with ^32P-labeled cDNA probes and analyzed by autoradiography. A GAPDH probe was used to normalize variations in loading.
The β1-integrin function-blocking mAb AIIB2 (C. Damsky, UCSF) was introduced into the cell-embedded substratum at a concentration of 100 μg/ml ascites protein (which corresponds to 4-10 μg/ml purified rat IgG1) at the time of Matrigel gelation. Tyrphostin AG 1478 (Calbiochem) dissolved in dimethyl sulfoxide was added to the medium at a concentration of 100 nM on alternate days. Control cultures were treated with […] and vehicle only for AIIB2 antibody and inhibitor experiments, respectively.

SMILES: COc1cc2ncnc(Nc3cccc(Cl)c3)c2cc1OC [Tyrphostin, Tyrphostin AG 1478]
- AZU-1 message levels in treated T4-2 cells (Northern blot): restored to S1-like levels
- phenotype of treated T4-2 cells in 3D rBM: phenotypically reverted
